Experiment: Neuroprotective activity against glutamate-induced toxicity in Sprague-Dawley rat cortical cells assessed as cell viability at 5 uM pretreated 1 hr before glutamate challenge by LDH release assay
Format: functional
Conditions: read-out: Activity
`C=C(C)[C@@H]1CC[C@]2(C)C[C@H](O)[C@]3(C)[C@H](C[C@@H](OC(=O)c4ccc(O)cc4)[C@@H]4[C@@]5(C)CC[C@H](O)C(C)(C)[C@@H]5CC[C@]43C)[C@@H]12` [ULMICIN B] gave a viability at 5 µM of 51.2%. `C=C(C)[C@@H]1CC[C@]2(C)C[C@H](OC(=O)c3ccc(O)cc3)[C@]3(C)[C@H](C[C@@H](OC(=O)c4ccc(O)c(OC)c4)[C@@H]4[C@@]5(C)CC[C@H](O)C(C)(C)[C@@H]5CC[C@]43C)[C@@H]12` [ULMICIN C] showed a viability at 5 µM of 49.2%. For `C=C(C)[C@@H]1CC[C@]2(C)C[C@H](OC(=O)c3ccc(O)c(OC)c3)[C@]3(C)[C@H](C[C@@H](OC(=O)c4ccc(O)c(OC)c4)[C@@H]4[C@@]5(C)CC[C@H](O)C(C)(C)[C@@H]5CC[C@]43C)[C@@H]12` [ULMICIN D], the viability at 5 µM was 44.2%. With `C=C(C)[C@@H]1CC[C@]2(C)C[C@H](O)[C@]3(C)[C@H](C[C@@H](OC(=O)c4ccc(O)c(OC)c4)[C@@H]4[C@@]5(C)CC[C@H](O)C(C)(C)[C@@H]5CC[C@]43C)[C@@H]12` [ULMICIN A] the viability at 5 µM was 48%. `C=C(C)[C@@H]1CC[C@]2(C)C[C@H](OC(=O)c3ccccc3)[C@]3(C)[C@H](C[C@@H](OC(=O)c4ccc(O)c(OC)c4)[C@@H]4[C@@]5(C)CC[C@H](O)C(C)(C)[C@@H]5CC[C@]43C)[C@@H]12` [ULMICIN E] gave a viability at 5 µM of 41%.

From ChEMBL document CHEMBL1150570, “Five novel neuroprotective triterpene esters of Ulmus davidiana var. japonica” (2001)
